Results taken from patent US11014898B1, “Benzothiazepine compounds and their use as bile acid modulators” (Albireo AB, priority 2020, dated 2021).

Key:
[1] = molecular target: T1, Human LBAT (Homo sapiens, UniProt Q14973); experiment: LBAT (h) assay: 3H-taurocholic acid uptake in human LBAT-overexpressing cells; format: cell-based; details: 0.3 μM 3H-taurocholic acid and 7.5 μM cold taurocholic acid, 20 minutes, read-out: hLBAT IC50
T1 construct: expressed in transfected cells; cells kept under Geneticin selection
T1 sequence (Q14973 1-349): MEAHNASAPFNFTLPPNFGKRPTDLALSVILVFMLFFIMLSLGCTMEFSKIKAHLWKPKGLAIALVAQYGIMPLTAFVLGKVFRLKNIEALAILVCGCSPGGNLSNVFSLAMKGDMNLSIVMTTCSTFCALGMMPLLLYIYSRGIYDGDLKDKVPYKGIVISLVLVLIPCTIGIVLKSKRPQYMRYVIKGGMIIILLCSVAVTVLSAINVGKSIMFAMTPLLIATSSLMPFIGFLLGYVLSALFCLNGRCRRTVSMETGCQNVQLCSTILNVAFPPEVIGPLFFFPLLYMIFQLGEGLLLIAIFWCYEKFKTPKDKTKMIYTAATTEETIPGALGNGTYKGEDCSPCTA
Protocol: 20,000 cells (Human or Mouse LBAT-overexpressing cells) were seeded in 96-wells plate (Corning CLS3809) in 100 μL MEM-alpha medium (Gibco 12571-063) supplemented with 10% FBS (Gibco 10438026) containing Geneticin (Gibco 10131-027) (1 mg/mL) and incubated at 37° C. in 5% CO2 for 24 hours. After incubation, media was decanted from the wells and cells were washed two times with 300 μL of basal MEM-alpha medium (FBS-free). After decanting basal MEM-alpha medium each time, plates were tapped against paper towel to ensure maximum removal of residual media. For human LBAT, incubation mix was prepared by adding test inhibitor dilutions (3-fold serial dilution in DMSO (Sigma D2650), 10 points) in MEM-alpha (without FBS) containing 0.3 μM 3H-taurocholic acid (ARC ART-1368) and 7.5 μM cold taurocholic acid (Sigma T4009) (maintaining 0.2% final DMSO concentration). For mouse LBAT, incubation mix was prepared by adding test inhibitor dilutions (3-fold serial dilution in DMSO, 10 points) in MEM-alpha (without FBS) containing 0.3 μM 3H-taurocholic acid and 25 μM cold taurocholic acid maintaining 0.2% final DMSO concentration).
50 μL of incubation mix containing test inhibitors was then added to the wells (in duplicate) and the plates were incubated for 20 minutes in a CO2 incubator at 37° C. After incubation, the reaction was stopped by keeping the plates on ice water mix for 2-3 minutes and then the incubation mix was aspirated completely from the wells. The wells were washed two times with 250 μL of chilled unlabelled 1 mM taurocholic acid dissolved in HEPES (Gibco 15630080)-buffered (10 mM) HBSS (Gibco 14175079) (pH 7.4). The plates were tapped against a paper towel after every wash to ensure maximum removal of blocking buffer.
100 μL of MicroScint-20 (PerkinElmer 6013621) was added to the wells and kept overnight at room temperature before reading the plates in TopCount NXT™ Microplate Scintillation and Luminescence Counter from PerkinElmer under 3H Test protocol (set at 120 seconds reading time per well, with normal plate orientation).
(§1) All test compounds were provided in powder form at room temperature. 10 mM DMSO stocks of the test compounds were prepared, aliquoted and stored at −20° C. From the 10 mM DMSO stock of the compounds, a 3-fold serial dilution in DMSO was prepared to get a total of 10 dilutions of the test compounds. 0.5 μL of this dilution in DMSO was added to 250 μL of FBS-free basal media containing 3H-taurocholic acid and cold taurocholic acid to prepare the incubation mixture.

[2] = molecular target: T2, Human IBAT (Homo sapiens, UniProt Q12908); experiment: IBAT (h) assay: 3H-taurocholic acid uptake in human IBAT-overexpressing cells; format: cell-based; details: 0.25 μM 3H-taurocholic acid and 5 μM cold taurocholic acid, 20 minutes, read-out: hIBAT IC50
T2 construct: expressed in transfected cells; cells kept under Puromycin selection
T2 sequence (Q12908 1-348): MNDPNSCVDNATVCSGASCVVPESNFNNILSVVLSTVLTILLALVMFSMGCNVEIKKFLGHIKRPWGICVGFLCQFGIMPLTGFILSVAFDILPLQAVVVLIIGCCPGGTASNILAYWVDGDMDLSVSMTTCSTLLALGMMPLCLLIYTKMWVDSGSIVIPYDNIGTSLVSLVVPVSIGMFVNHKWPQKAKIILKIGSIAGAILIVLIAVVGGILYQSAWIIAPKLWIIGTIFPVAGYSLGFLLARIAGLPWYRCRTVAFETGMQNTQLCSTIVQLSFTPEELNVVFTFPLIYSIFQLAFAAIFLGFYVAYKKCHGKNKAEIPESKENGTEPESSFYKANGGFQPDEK
Protocol: 10,000 cells (Human or Mouse IBAT-overexpressing cells) were seeded in 96-wells plate (Corning CLS3809) in 200 μL MEM-alpha medium (Gibco 12571-063) supplemented with 10% FBS (Gibco 10438026) containing Puromycin (Gibco A1113803) (10 μg/mL) and incubated at 37° C. in 5% CO2 for 48 hours. After incubation, media was decanted from the wells and cells were washed two times with 300 μL of basal MEM-alpha medium (FBS-free). After decanting basal MEM-alpha medium each time, plates were tapped against paper towel to ensure maximum removal of residual media. Test inhibitor dilutions (highest test concentration being 10 μM, 3-fold serial dilution, 10 points) prepared in DMSO (Sigma D2650) were added in incubation mix (maintaining 0.2% final DMSO concentration) containing 0.25 μM 3H-taurocholic acid (ARC ART-1368) and 5 μM of cold taurocholic acid (Sigma T4009). 50 μL of incubation mix containing test inhibitors was then added to the wells (in duplicate) and the plates were incubated for 20 minutes in a CO2 incubator at 37° C. After incubation, the reaction was stopped by keeping the plates on ice water mix for 2-3 minutes and then the incubation mix was aspirated completely from the wells. The wells were washed two times with 250 μL of chilled unlabelled 1 mM taurocholic acid dissolved in HEPES (Gibco 15630080)-buffered (10 mM) HBSS (Gibco 14175079) (pH 7.4). The plates were tapped against a paper towel after every wash to ensure maximum removal of blocking buffer.
100 μL of MicroScint-20 (PerkinElmer 6013621) was added to the wells and kept overnight at room temperature before reading the plates in TopCount NXT™ Microplate Scintillation and Luminescence Counter from PerkinElmer under 3H Test protocol (set at 120 seconds reading time per well).
as §1

| Structure (SMILES) | IC50 [1] [µM] | IC50 [2] [µM] |
| --- | --- | --- |
| CCCCC1(CCCC)CN(c2ccc(Br)cc2)c2cc(SC)c(OCC(=O)O)cc2S(=O)(=O)C1 [Example 3, 2-((5-(4-bromophenyl)-3,3-dibutyl-7-(methylthio)-1,1-dioxido-2,3,4,5-tetrahydro-1,5-benzothiazepin-8-yl)oxy)acetic Acid] | 2.82 | 0.026 |
| CCCCC1(CCCC)CN(c2ccc(O)cc2)c2cc(SC)c(OCC(=O)O)cc2S(=O)(=O)C1 [Example 4, 2-((3,3-dibutyl-5-(4-hydroxyphenyl)-7-(methylthio)-1,1-dioxido-2,3,4,5-tetrahydro-1,5-benzothiazepin-8-yl)oxy)acetic Acid] | 1.99 | 0.015 |
